# Patent publication US20050197376A1, “Concomitant drugs” (Fujisawa Pharmaceutical Co. Ltd., priority 2004, published 2005)
# Tested on: type II diabetic patients
# Experiment: Concurrent oral administration with sulfonylurea to type II diabetic patients
# Assay type: in vivo, human
# Conditions: type II diabetic patients on sulfonylureas (glipizide, glyburide or glimepiride); 15 mg/day oral, concurrently with sulfonylurea, plural months
smiles,measurement,value
"CCCCCS(=O)(=O)NC(=O)c1ccc2nc(C)n(Cc3ccc(Cl)cc3Cl)c2c1 [(3), 1-(2,4-dichlorobenzyl)-2-methyl-N-(pentylsulfonyl)-1H-benzimidazole-6-carboxamide]",HbAlc decrease,not less than 1 % point
